Where a SMILES comes first, the peptide text is derived from it. [ ]: non-standard residue; d: D form. The star is where a group is joined. DOTA = O=C(O)CN1CCN(CC(=O)O)CCN(CC(=O)*)CCN(CC(=O)O)CC1
How the values were obtained:
[1] = Urine analyses by RP-HPLC after i.v. injection; type: in vivo; conditions: mice, urine from bladder at 1 h post-injection
Experimental: ^67Ga-DOTA-(L-Asp)14 was prepared according to a method described previously. ^67Ga-DOTA-(L-Asp)14 or ^67Ga-DOTA-(D-Asp)14 solution (370 kBq / 200 μL) was intravenously injected to 6-week-old male ddY mice. At 1 h post-injection, mice were sacrificed and their […] were taken from the bladders. After ultrafiltration (Microcon-30, Merck KGaA), the filtrate samples were analyzed by RP-HPLC at a flow rate of 1 mL/min with a gradient mobile phase from water containing 0.1% TFA to 20% methanol in water containing 0.1% TFA for 20 min.

[2] = design: method as in PMID 24391942; conditions: normal mice; cited from earlier work
[3] = Biodistribution experiments in normal mice after i.v. injection; type: in vivo; conditions: mouse, in vivo, iv; for tissue uptake dose at 1 h / tissue uptake dose at 3 h / tissue uptake dose at 10 min: male, ddY, total radioactivity, Biodistribution of radioactivity
Experimental: Experiments with animals were conducted in strict accordance with the Guidelines for the Care and Use of Laboratory Animals of Kanazawa University. The animal experimental protocols used were approved by the Committee on Animal Experimentation of Kanazawa University (Permit Number: AP-132633). Biodistribution experiments were performed after intravenous administration of each diluted tracer solution (37–740 kBq/100 μL) to 6-week-old male ddY mice (27–32 g, Japan SLC, Inc., Hamamatsu, Japan). Four or five mice at each time point after the administration of each compound were sacrificed by decapitation at 10, 60, and 180 min post-injection. Tissues of interest were taken and weighed. Complete left femurs were isolated as representative bone samples, radioactivity was determined using gamma counters (AccuFLEX γ ARC-8001 in the case of ^18F, Hitachi, Ltd.), and background counts and physical decay were corrected during counting.

O=C(O)C[C@H](NC(=O)[C@H](CC(=O)O)NC(=O)[C@H](CC(=O)O)NC(=O)[C@H](CC(=O)O)NC(=O)[C@H](CC(=O)O)NC(=O)[C@H](CC(=O)O)NC(=O)[C@H](CC(=O)O)NC(=O)[C@H](CC(=O)O)NC(=O)[C@H](CC(=O)O)NC(=O)[C@H](CC(=O)O)NC(=O)[C@H](CC(=O)O)NC(=O)[C@H](CC(=O)O)NC(=O)[C@H](CC(=O)O)NC(=O)[C@H](CC(=O)O)NC(=O)CN1CCN(CC(=O)O)CCN(CC(=O)O)CCN(CC(=O)O)CC1)C(=O)O [^67Ga-DOTA-(L-Asp)14, metal not drawn] ({DOTA}-DDDDDDDDDDDDDD-OH)
Ratio of the intact complex in urine [1]: 55.0 ± 13.9%
Accumulation in bone (in words) [2]: high accumulation in bone
Blood clearance (in words) [2]: rapid blood clearance

O=C(O)C[C@@H](NC(=O)[C@@H](CC(=O)O)NC(=O)[C@@H](CC(=O)O)NC(=O)[C@@H](CC(=O)O)NC(=O)[C@@H](CC(=O)O)NC(=O)CN1CCN(CC(=O)O)CCN(CC(=O)O)CCN(CC(=O)O)CC1)C(=O)O [^67Ga-DOTA-(D-Asp)5, metal not drawn] ({DOTA}-[dD][dD][dD][dD][dD]-OH)
tissue uptake dose at 1 h ([3]; Blood): 0.27 %ID
tissue uptake dose at 3 h ([3]; Blood): 0.13 %ID
tissue uptake dose at 10 min ([3]; Bone (Femur)): 6.78 %ID
tissue uptake dose at 1 h ([3]; Bone (Femur)): 5.01 %ID
tissue uptake dose at 3 h ([3]; Bone (Femur)): 2.8 %ID
tissue uptake dose at 10 min ([3]; Brain): 0.1 %ID
tissue uptake dose at 1 h ([3]; Brain): 0.02 %ID
tissue uptake dose at 3 h ([3]; Brain): 0.01 %ID
tissue uptake dose at 10 min ([3]; Heart): 1.03 %ID
tissue uptake dose at 1 h ([3]; Heart): 0.12 %ID
tissue uptake dose at 3 h ([3]; Heart): 0.06 %ID
tissue uptake dose at 10 min ([3]; Kidney): 12 %ID
tissue uptake dose at 1 h ([3]; Kidney): 6.31 %ID
tissue uptake dose at 3 h ([3]; Kidney): 1.45 %ID
tissue uptake dose at 10 min ([3]; Large-intestine): 0.47 %ID
tissue uptake dose at 1 h ([3]; Large-intestine): 0.22 %ID
tissue uptake dose at 3 h ([3]; Large-intestine): 0.22 %ID
tissue uptake dose at 10 min ([3]; Liver): 0.67 %ID
tissue uptake dose at 1 h ([3]; Liver): 0.22 %ID
tissue uptake dose at 3 h ([3]; Liver): 0.14 %ID
tissue uptake dose at 10 min ([3]; Lung): 2.03 %ID
tissue uptake dose at 1 h ([3]; Lung): 0.3 %ID
tissue uptake dose at 3 h ([3]; Lung): 0.09 %ID
tissue uptake dose at 10 min ([3]; Muscle): 0.68 %ID
tissue uptake dose at 1 h ([3]; Muscle): 0.13 %ID
tissue uptake dose at 3 h ([3]; Muscle): 0.07 %ID
tissue uptake dose at 10 min ([3]; Pancreas): 0.72 %ID
tissue uptake dose at 1 h ([3]; Pancreas): 0.25 %ID
tissue uptake dose at 3 h ([3]; Pancreas): 0.06 %ID
tissue uptake dose at 10 min ([3]; Small-intestine): 0.55 %ID
tissue uptake dose at 1 h ([3]; Small-intestine): 0.23 %ID
tissue uptake dose at 3 h ([3]; Small-intestine): 0.18 %ID
tissue uptake dose at 10 min ([3]; Spleen): 0.56 %ID
tissue uptake dose at 1 h ([3]; Spleen): 0.16 %ID
tissue uptake dose at 3 h ([3]; Spleen): 0.11 %ID
tissue uptake dose at 10 min ([3]; Stomach): 0.32 %ID
tissue uptake dose at 1 h ([3]; Stomach): 0.1 %ID
tissue uptake dose at 3 h ([3]; Stomach): 0.48 %ID
Accumulation of radioactivity in bone (in words) [3]: moderate accumulation of radioactivity in bone

O=C(O)CC[C@H](NC(=O)[C@H](CCC(=O)O)NC(=O)[C@H](CCC(=O)O)NC(=O)[C@H](CCC(=O)O)NC(=O)[C@H](CCC(=O)O)NC(=O)[C@H](CCC(=O)O)NC(=O)[C@H](CCC(=O)O)NC(=O)[C@H](CCC(=O)O)NC(=O)[C@H](CCC(=O)O)NC(=O)[C@H](CCC(=O)O)NC(=O)[C@H](CCC(=O)O)NC(=O)[C@H](CCC(=O)O)NC(=O)[C@H](CCC(=O)O)NC(=O)[C@H](CCC(=O)O)NC(=O)CN1CCN(CC(=O)O)CCN(CC(=O)O)CCN(CC(=O)O)CC1)C(=O)O [^67Ga-DOTA-(L-Glu)14, metal not drawn]
tissue uptake dose at 10 min ([3]; Blood): 1.85 %ID
tissue uptake dose at 1 h ([3]; Blood): 0.12 %ID
tissue uptake dose at 3 h ([3]; Blood): 0.05 %ID
tissue uptake dose at 10 min ([3]; Bone (Femur)): 9.81 %ID
tissue uptake dose at 1 h ([3]; Bone (Femur)): 11.1 %ID
tissue uptake dose at 3 h ([3]; Bone (Femur)): 10.9 %ID
tissue uptake dose at 10 min ([3]; Brain): 0.05 %ID
tissue uptake dose at 1 h ([3]; Brain): 0.01 %ID
tissue uptake dose at 3 h ([3]; Brain): 0.03 %ID
tissue uptake dose at 10 min ([3]; Heart): 0.67 %ID
tissue uptake dose at 1 h ([3]; Heart): 0.1 %ID
tissue uptake dose at 3 h ([3]; Heart): 0.06 %ID
tissue uptake dose at 10 min ([3]; Kidney): 22.1 %ID
tissue uptake dose at 1 h ([3]; Kidney): 26.4 %ID
tissue uptake dose at 3 h ([3]; Kidney): 25.1 %ID
tissue uptake dose at 10 min ([3]; Large-intestine): 0.37 %ID
tissue uptake dose at 1 h ([3]; Large-intestine): 0.07 %ID
tissue uptake dose at 3 h ([3]; Large-intestine): 0.23 %ID
tissue uptake dose at 10 min ([3]; Liver): 0.47 %ID
tissue uptake dose at 1 h ([3]; Liver): 0.13 %ID
tissue uptake dose at 3 h ([3]; Liver): 0.14 %ID
tissue uptake dose at 10 min ([3]; Lung): 1.57 %ID
tissue uptake dose at 1 h ([3]; Lung): 0.13 %ID
tissue uptake dose at 3 h ([3]; Lung): 0.06 %ID
tissue uptake dose at 10 min ([3]; Muscle): 0.63 %ID
tissue uptake dose at 1 h ([3]; Muscle): 0.1 %ID
tissue uptake dose at 3 h ([3]; Muscle): 0.3 %ID
tissue uptake dose at 10 min ([3]; Pancreas): 0.59 %ID
tissue uptake dose at 1 h ([3]; Pancreas): 0.13 %ID
tissue uptake dose at 3 h ([3]; Pancreas): 0.08 %ID
tissue uptake dose at 10 min ([3]; Small-intestine): 0.5 %ID
tissue uptake dose at 1 h ([3]; Small-intestine): 0.13 %ID
tissue uptake dose at 3 h ([3]; Small-intestine): 0.15 %ID
tissue uptake dose at 10 min ([3]; Spleen): 0.44 %ID
tissue uptake dose at 1 h ([3]; Spleen): 0.1 %ID
tissue uptake dose at 3 h ([3]; Spleen): 0.11 %ID
tissue uptake dose at 10 min ([3]; Stomach): 0.22 %ID
tissue uptake dose at 1 h ([3]; Stomach): 0.07 %ID
tissue uptake dose at 3 h ([3]; Stomach): 0.07 %ID
Accumulation of radioactivity in bone (in words) [3]: high accumulation and retention of radioactivity in bone
Clearance from the blood (in words) [3]: rapid clearance from the blood
Radioactivity in the kidneys (in words) [3]: retained
